# Results reported in US8999970B2, “Administration of an anti-obesity compound to individuals with renal impairment” (Arena Pharmaceuticals, Inc., priority 2010, dated 2015).
# Values joined by “and” are separate entries in the source; they are usually repeats but may differ in a detail not shown here. Equal entries are not always repeated.
# Assay: Clinical trial APD356-016: plasma and urine pharmacokinetics of lorcaserin, M1 and M5 after a 10 mg dose in subjects with renal impairment
# Settings: Severe Renal Impairment Not Receiving Dialysis; for Plasma Concentration of HSO3-APD356 Metabolite, Max: group Max; for Plasma Concentration of HSO3-APD356 Metabolite, Max / Plasma Concentration of HSO3-APD356 Metabolite, Mean / Plasma Concentration of HSO3-APD356 Metabolite, Median / Plasma Concentration of HSO3-APD356 Metabolite, Min: N 8; for Plasma Concentration of HSO3-APD356 Metabolite, Mean: group Mean; for Plasma Concentration of HSO3-APD356 Metabolite, Median: group Median; for Plasma Concentration of HSO3-APD356 Metabolite, Min: group Min; for Plasma Concentration of HSO3-APD356 Metabolite: individual subject
# Protocol: The interaction of renal insufficiency with the pharmacokinetics, tolerability and safety of lorcaserin were evaluated in a formal PK study in subjects with renal impairment and in the populations studied in phase 2 and phase 3 clinical studies.
# The pharmacokinetic properties of lorcaserin in subjects with varying degrees of renal impairment were evaluated in clinical trial APD356-016. At the time of study conduct and analysis, subjects were assigned to renal impairment groups based on creatinine clearance calculated using IDEAL body weight (Table 1). This calculation was used to avoid overestimation of creatinine clearance due to the excess body weight (overweight and obese subjects were enrolled in the trial). Summaries of pharmacokinetic properties by group assignment using creatinine clearance calculated using ACTUAL body weights are also provided in the sections that follow.
# The FDA expects a reasonable margin between anticipated exposures and exposures that may produce toxicity. A reasonable margin can vary depending on the expected toxicity, but generally is an order of magnitude (10 times), but can sometimes be less for mild toxicity.
# Table 13. Summary of Plasma Concentrations (ng/mL) of HSO3-APD356 Metabolite over Time by Group: Severe Renal Impairment Not Receiving Dialysis (see Table 13 next page)
# Subject number 3140-505 was on dialysis and grouped in the end stage renal disease group.
compound,measurement,setting,value
C[C@H]1CN(S(=O)(=O)O)CCc2ccc(Cl)cc21 [HSO3-APD356 Metabolite],"Plasma Concentration of HSO3-APD356 Metabolite, Max",Day 1 0.5 h,182 ng/mL
same,"Plasma Concentration of HSO3-APD356 Metabolite, Max",Day 1 1 h,319 ng/mL
same,"Plasma Concentration of HSO3-APD356 Metabolite, Max",Day 1 2 h,489 ng/mL
same,"Plasma Concentration of HSO3-APD356 Metabolite, Max",Day 1 3 h,468 ng/mL
same,"Plasma Concentration of HSO3-APD356 Metabolite, Max",Day 1 4 h,542 ng/mL
same,"Plasma Concentration of HSO3-APD356 Metabolite, Max",Day 1 6 h,445 ng/mL
same,"Plasma Concentration of HSO3-APD356 Metabolite, Max",Day 1 8 h,473 ng/mL
same,"Plasma Concentration of HSO3-APD356 Metabolite, Max",Day 1 12 h,439 ng/mL
same,"Plasma Concentration of HSO3-APD356 Metabolite, Max",Day 1 16 h,410 ng/mL
same,"Plasma Concentration of HSO3-APD356 Metabolite, Max",Day 1 Predose,9.00 ng/mL
same,"Plasma Concentration of HSO3-APD356 Metabolite, Max",Day 2 24 h,406 ng/mL
same,"Plasma Concentration of HSO3-APD356 Metabolite, Max",Day 2 36 h,336 ng/mL
same,"Plasma Concentration of HSO3-APD356 Metabolite, Max",Day 3 48 h,292 ng/mL
same,"Plasma Concentration of HSO3-APD356 Metabolite, Max",Day 4 72 h,248 ng/mL
same,"Plasma Concentration of HSO3-APD356 Metabolite, Max",Day 5 96 h,225 ng/mL
same,"Plasma Concentration of HSO3-APD356 Metabolite, Max",Day 6 120 h,212 ng/mL
same,"Plasma Concentration of HSO3-APD356 Metabolite, Mean",Day 1 0.5 h,25.7 ng/mL
same,"Plasma Concentration of HSO3-APD356 Metabolite, Mean",Day 1 1 h,50.6 ng/mL
same,"Plasma Concentration of HSO3-APD356 Metabolite, Mean",Day 1 2 h,83.2 ng/mL
same,"Plasma Concentration of HSO3-APD356 Metabolite, Mean",Day 1 3 h,86.8 ng/mL
same,"Plasma Concentration of HSO3-APD356 Metabolite, Mean",Day 1 4 h,99.5 ng/mL
same,"Plasma Concentration of HSO3-APD356 Metabolite, Mean",Day 1 6 h,86.7 ng/mL
same,"Plasma Concentration of HSO3-APD356 Metabolite, Mean",Day 1 8 h,88.9 ng/mL
same,"Plasma Concentration of HSO3-APD356 Metabolite, Mean",Day 1 12 h,84.3 ng/mL
same,"Plasma Concentration of HSO3-APD356 Metabolite, Mean",Day 1 16 h,76.8 ng/mL
same,"Plasma Concentration of HSO3-APD356 Metabolite, Mean",Day 1 Predose,1.13 ng/mL
same,"Plasma Concentration of HSO3-APD356 Metabolite, Mean",Day 2 24 h,84.4 ng/mL
same,"Plasma Concentration of HSO3-APD356 Metabolite, Mean",Day 2 36 h,73.9 ng/mL
same,"Plasma Concentration of HSO3-APD356 Metabolite, Mean",Day 3 48 h,68.1 ng/mL
same,"Plasma Concentration of HSO3-APD356 Metabolite, Mean",Day 4 72 h,58.3 ng/mL
same,"Plasma Concentration of HSO3-APD356 Metabolite, Mean",Day 5 96 h,53.8 ng/mL
same,"Plasma Concentration of HSO3-APD356 Metabolite, Mean",Day 6 120 h,49.2 ng/mL
same,"Plasma Concentration of HSO3-APD356 Metabolite, Median",Day 1 0.5 h,1.33 ng/mL
same,"Plasma Concentration of HSO3-APD356 Metabolite, Median",Day 1 1 h,12.6 ng/mL
same,"Plasma Concentration of HSO3-APD356 Metabolite, Median",Day 1 2 h,24.5 ng/mL
same,"Plasma Concentration of HSO3-APD356 Metabolite, Median",Day 1 3 h,27.5 ng/mL
same,"Plasma Concentration of HSO3-APD356 Metabolite, Median",Day 1 4 h,31.6 ng/mL
same,"Plasma Concentration of HSO3-APD356 Metabolite, Median",Day 1 6 h,32.8 ng/mL
same,"Plasma Concentration of HSO3-APD356 Metabolite, Median",Day 1 8 h,29.5 ng/mL
same,"Plasma Concentration of HSO3-APD356 Metabolite, Median",Day 1 12 h,28.9 ng/mL
same,"Plasma Concentration of HSO3-APD356 Metabolite, Median",Day 1 16 h,28.1 ng/mL
same,"Plasma Concentration of HSO3-APD356 Metabolite, Median",Day 1 Predose,0.00 ng/mL
same,"Plasma Concentration of HSO3-APD356 Metabolite, Median",Day 2 24 h,32.5 ng/mL
same,"Plasma Concentration of HSO3-APD356 Metabolite, Median",Day 2 36 h,35.5 ng/mL
same,"Plasma Concentration of HSO3-APD356 Metabolite, Median",Day 3 48 h,33.8 ng/mL
same,"Plasma Concentration of HSO3-APD356 Metabolite, Median",Day 4 72 h,31.6 ng/mL
same,"Plasma Concentration of HSO3-APD356 Metabolite, Median",Day 5 96 h,31.3 ng/mL
same,"Plasma Concentration of HSO3-APD356 Metabolite, Median",Day 6 120 h,27.5 ng/mL
same,"Plasma Concentration of HSO3-APD356 Metabolite, Min",Day 1 0.5 h,0.00 ng/mL
same,"Plasma Concentration of HSO3-APD356 Metabolite, Min",Day 1 1 h,0.00 ng/mL
same,"Plasma Concentration of HSO3-APD356 Metabolite, Min",Day 1 2 h,6.08 ng/mL
same,"Plasma Concentration of HSO3-APD356 Metabolite, Min",Day 1 3 h,17.6 ng/mL
same,"Plasma Concentration of HSO3-APD356 Metabolite, Min",Day 1 4 h,25.4 ng/mL
same,"Plasma Concentration of HSO3-APD356 Metabolite, Min",Day 1 6 h,26.1 ng/mL
same,"Plasma Concentration of HSO3-APD356 Metabolite, Min",Day 1 8 h,25.8 ng/mL
same,"Plasma Concentration of HSO3-APD356 Metabolite, Min",Day 1 12 h,25.4 ng/mL
same,"Plasma Concentration of HSO3-APD356 Metabolite, Min",Day 1 16 h,18.0 ng/mL
same,"Plasma Concentration of HSO3-APD356 Metabolite, Min",Day 1 Predose,0.00 ng/mL
same,"Plasma Concentration of HSO3-APD356 Metabolite, Min",Day 2 24 h,27.1 ng/mL
same,"Plasma Concentration of HSO3-APD356 Metabolite, Min",Day 2 36 h,27.8 ng/mL
same,"Plasma Concentration of HSO3-APD356 Metabolite, Min",Day 3 48 h,25.8 ng/mL
same,"Plasma Concentration of HSO3-APD356 Metabolite, Min",Day 4 72 h,19.7 ng/mL
same,"Plasma Concentration of HSO3-APD356 Metabolite, Min",Day 5 96 h,15.1 ng/mL
same,"Plasma Concentration of HSO3-APD356 Metabolite, Min",Day 6 120 h,12.3 ng/mL
same,Plasma Concentration of HSO3-APD356 Metabolite,Day 1 0.5 h,182 ng/mL and 2.66 ng/mL and 8.54 ng/mL and 0.00 ng/mL (2×) and 12.2 ng/mL
same,Plasma Concentration of HSO3-APD356 Metabolite,Day 1 1 h,319 ng/mL and 22.8 ng/mL and 18.0 ng/mL and 0.00 ng/mL and 31.4 ng/mL and 4.30 ng/mL
same,Plasma Concentration of HSO3-APD356 Metabolite,Day 1 2 h,489 ng/mL and 42.2 ng/mL and 25.1 ng/mL and 6.08 ng/mL and 53.2 ng/mL and 13.3 ng/mL
same,Plasma Concentration of HSO3-APD356 Metabolite,Day 1 3 h,468 ng/mL and 52.4 ng/mL and 26.5 ng/mL and 17.6 ng/mL and 55.6 ng/mL and 20.9 ng/mL
same,Plasma Concentration of HSO3-APD356 Metabolite,Day 1 4 h,542 ng/mL and 53.3 ng/mL and 28.2 ng/mL and 28.6 ng/mL and 55.1 ng/mL and 25.4 ng/mL
same,Plasma Concentration of HSO3-APD356 Metabolite,Day 1 6 h,445 ng/mL and 51.9 ng/mL and 32.2 ng/mL and 29.8 ng/mL and 46.5 ng/mL and 26.1 ng/mL
same,Plasma Concentration of HSO3-APD356 Metabolite,Day 1 8 h,473 ng/mL and 49.7 ng/mL and 27.8 ng/mL and 29.2 ng/mL and 50.4 ng/mL and 25.8 ng/mL
same,Plasma Concentration of HSO3-APD356 Metabolite,Day 1 12 h,439 ng/mL and 45.9 ng/mL and 27.2 ng/mL and 27.3 ng/mL and 52.2 ng/mL and 25.4 ng/mL
same,Plasma Concentration of HSO3-APD356 Metabolite,Day 1 16 h,410 ng/mL and 46.9 ng/mL and 28.1 ng/mL and 27.5 ng/mL and 18.0 ng/mL and 28.0 ng/mL and 30.6 ng/mL
same,Plasma Concentration of HSO3-APD356 Metabolite,Day 1 Predose,0.00 ng/mL (6×) and 9.00 ng/mL
same,Plasma Concentration of HSO3-APD356 Metabolite,Day 2 24 h,406 ng/mL and 51.1 ng/mL and 33.0 ng/mL and 31.9 ng/mL and 62.4 ng/mL and 31.6 ng/mL and 32.0 ng/mL
same,Plasma Concentration of HSO3-APD356 Metabolite,Day 2 36 h,336 ng/mL and 45.5 ng/mL and 40.4 ng/mL and 30.6 ng/mL (2×) and 52.2 ng/mL and 28.4 ng/mL
same,Plasma Concentration of HSO3-APD356 Metabolite,Day 3 48 h,292 ng/mL and 47.2 ng/mL and 34.3 ng/mL and 31.0 ng/mL and 54.2 ng/mL and 33.3 ng/mL
same,Plasma Concentration of HSO3-APD356 Metabolite,Day 4 72 h,248 ng/mL and 40.2 ng/mL and 33.0 ng/mL and 27.9 ng/mL and 46.2 ng/mL and 30.2 ng/mL
same,Plasma Concentration of HSO3-APD356 Metabolite,Day 5 96 h,225 ng/mL and 36.0 ng/mL and 30.2 ng/mL and 28.5 ng/mL and 43.8 ng/mL and 32.3 ng/mL
same,Plasma Concentration of HSO3-APD356 Metabolite,Day 6 120 h,212 ng/mL and 30.4 ng/mL and 26.3 ng/mL and 25.2 ng/mL and 40.1 ng/mL and 28.6 ng/mL
